The assay concerns CEM cells HIV-1 protection, formazan growth assay. In words: NCI AIDS Antiviral Assay. Particulars: for pIC50: measured here: growth of uninfected CEM cells. The gist of the method:
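Protection of CEM cells against HIV-1 measured as cell growth via soluble formazan read-out, with five concentrations tested on both infected and uninfected cells; failure to protect may reflect toxicity.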

pEC50, pIC50: −log10 of the molar value. “And” between values parts separate entries of the source, which are not always exact repeats. Equal entries are not always repeated. The source made the active and inactive calls.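 The calls were made as follows: active = compounds giving half or more protection of infected cells from virus-caused growth loss, again on retest; inactive = the rest.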 Bounds are passed on as bounds.

Usually pEC50 stands for −log10 of the EC50, conventionally taken in molar units. As a reminder, the pIC50 is the IC50 on a negative log10 scale, so that one unit is a factor of ten. Higher therefore signals a small IC50.

As to `Cc1ccc(N=N/C(=N/NC(=O)c2cc(Cl)ccc2C(=O)c2ccccc2)c2ccc(N(CCC#N)CCC#N)cc2C)cc1`, the pEC50 is less than 3.70 and the pIC50 was 4.93.

Consider `CC(=O)OCC1OC(Nn2c(=O)[nH]c3ccccc3c2=O)C(OC(C)=O)C(OC(C)=O)C1OC(C)=O` (stereo not drawn), for which the pEC50 is less than 3.80 and the pIC50 was 3.93.

Regarding `C=C1C(=O)OC2C[C@H](C)C3CC(=O)C(C)=C3CC12` (stereo partly drawn), the pEC50 is less than 3.42 and the pIC50 is 5.18.

For `COC(=O)CC(C(C(=O)OCc1ccccc1)C(C)O)N1C(=O)OCC1c1ccccc1` (stereo not drawn), the pEC50 is less than 3.70 and the pIC50 is 3.91.

As for `CC(C)OC(=O)c1ccc(CCc2cc(O)c(Br)cc2O)cc1`, the pEC50 was less than 3.70 and the pIC50 is 5.08.

On to `Cc1c(/C=N/NC(=S)Nc2ccccc2Cl)c(=O)n(-c2ccccc2)n1C`, for which the pEC50 was less than 3.70 and the pIC50 was 4.57.

In the case of `Cc1cn(COCCCS(=O)c2ccccc2)c(=O)[nH]c1=O` (stereo not drawn), the pEC50 was less than 3.70 and the pIC50 is less than 3.70.

On to `Cc1cc(-c2ccccc2)oc(=O)c1NC(=O)c1ccccc1`, for which the pEC50 was less than 3.70 and the pIC50 is 4.01.

With `CC(=O)CC(=O)Nc1ccccc1.CC(=O)CC(=O)Nc1ccccc1.[Cu]`, the pEC50 is less than 3.70 and the pIC50 is 4.76.

As for `CC(C)(C)OC(=O)NC(Cc1ccccc1)C(=S)N1CCCC1` (stereo not drawn), the pEC50 was 4.25 and the pIC50 is 3.85.

As to `CC(=O)Oc1ccc2c(c1)c1c(=O)oc(C)nc1n2Cc1ccccc1`, the pEC50 was less than 3.70 and the pIC50 was 4.18.

As to `CC1(C)N([O-])[N+](=O)C1(C)O` (stereo not drawn), the pEC50 was less than 3.70 and the pIC50 is less than 3.70.

As to `COc1cc2[nH]c3c(c2cc1OC)CCN[C@@]31CC[C@@]2(CC3c4c(cc(OC)c(O)c42)CCN3C)C[C@@H]1OC` (stereo partly drawn), the outcome was inactive.

On to `CC(=O)OCCCC(NC(=O)OC(C)(C)C)C(=O)NC(CCCOC(C)=O)C(=O)NC(Cc1ccc([N+](=O)[O-])cc1)C(=O)NCC(=O)OCc1ccccc1` (stereo not drawn), for which the pEC50 is less than 3.70 and the pIC50 was 4.79.

Take `CC1=NOC2(C1)C(=O)Nc1ccccc12` (stereo not drawn): the pEC50 was less than 3.70 and the pIC50 is 3.85.

In the case of `COC(=O)c1cc2ccc(O)c(O)c2cn1`, the pEC50 was less than 3.71; the pIC50 was 5.65 and 5.63.

With `CCOC(=O)CCCSCCCC(=O)CCCSCCCC(=O)OCC`, the pEC50 is less than 3.35 and the pIC50 was 3.51.

Consider `CCCCOP(=O)(OCCCC)C(NS(=O)(=O)c1ccccc1)(C(=O)OCC)C(F)(F)F` (stereo not drawn), for which the pEC50 was less than 3.70 and the pIC50 was 4.72.

Consider `C[N+](C)(C)CCCC#CC[N+]1(C)CCOCC1`, for which the outcome was inactive.

On to `NNC(=O)CC(=O)Nc1ccc(Cl)cc1`, for which the pEC50 is less than 3.70 and the pIC50 is 3.95.

As to `CC(C)(C)NC(=O)c1ccccc1[Se][Se]c1ccccc1C(=O)NC(C)(C)C`, the pEC50 is 4.99 and the negative-log IC50 (pIC50) was 4.88.

In the case of `CSc1ncnc2c1ncn2CCC(=O)OC(C)(C)C`, the pEC50 is less than 3.70 and the pIC50 was less than 3.70.

`CCCNC(=O)Sc1ccccc1C(=O)NCCC(N)=O` gave a pEC50 of less than 5.58.

Regarding `Cc1cn(C2CCC(COP(=O)(OCC(=O)c3ccccc3)OCC(=O)c3ccccc3)O2)c(=O)[nH]c1=O` (stereo not drawn), the pEC50 was 4.71 and the negative logarithm of the IC50 (pIC50) is less than 3.70.

For `COc1ccc(N=C2C(=Nc3ccc(OC)cc3)N(c3ccccc3[N+](=O)[O-])C(=S)N2c2ccc(OC)cc2)cc1`, the pEC50 is less than 3.70 and the pIC50 is 4.32.

Turning to `C/C(CC(O)(C(F)(F)F)C(F)(F)F)=N\NC(N)=O`, the pEC50 is less than 3.70 and the negative-log IC50 (pIC50) was less than 3.70.

On to `COC(=O)/C=C(/CNC(=O)OCc1ccccc1)c1ccccc1`, for which the outcome was inactive.

Turning to `CC(=O)Nc1cc2cc(NC(=O)C(Cl)(Cl)Cl)ccc2oc1=O`, the pEC50 was less than 4.09 and the pIC50 was less than 4.09.

For the compound `CCCC(=O)Nc1c(I)cc(I)c(CC(CC)C(=O)O)c1I` (stereo not drawn), the pEC50 is less than 3.70 and the pIC50 was less than 3.70.

Consider `COc1ccc(C2CC(c3c(O)ccc4ccccc34)=NN2c2ccc([N+](=O)[O-])cc2[N+](=O)[O-])cc1OC` (stereo not drawn), for which the pEC50 is less than 3.70 and the pIC50 is 4.80.

Turning to `CCOC(=O)c1ccc(/C(C)=N/NC(N)=S)cc1`, the outcome was inactive.

For `N#Cc1c(N)sc(N)c1C#N`, the pEC50 is less than 3.70 and the pIC50 is 4.01.

Take `O=C1c2ccccc2-c2nnc3c(c21)Cc1ccccc1C3`: the pEC50 is less than 3.70 and the pIC50 was less than 3.70.

As to `Cc1nc(-n2[nH]c(C)c(CCO)c2=O)[nH]c(=O)c1CCO`, the result was inactive.

With `Oc1ccc2c(c1)CC[N+]1=C2CCC2CCCC21` (stereo not drawn), the pEC50 was less than 3.68 and the pIC50 is less than 3.68.

In the case of `COc1ccc(-c2cc(=O)c3c(OC)c(O)c(OC)cc3o2)cc1`, the pEC50 is less than 3.70 and the pIC50 was 4.41.

`N#Cc1nc(Nc2cccc3ccccc23)sc1N`: the pEC50 is less than 3.87 and the pIC50 is 4.22.

Consider `N#CCc1n[nH]c(Cc2ccccc2)n1`, for which the pEC50 was less than 3.70 and the pIC50 is less than 3.70.

Regarding `CN(C)/C=N/n1c2ccccc2c2ccccc21`, the pEC50 is less than 3.70 and the pIC50 is 3.96.

On to `O=Cc1[nH]c(=O)[nH]c(=O)c1CO`, for which the pEC50 was less than 3.70 and the pIC50 is 4.03.

Consider `C=C1C(=O)O[C@H]2[C@H]1CC(=O)/C(C)=C/CC[C@@]1(C)O[C@@H]21`, for which the pEC50 is less than 5.70 and the pIC50 was 6.10.

For `CCCCCC/C=C\CCCCCCCCCC1=C(CN2CCN(C)CC2)C(=O)C=C(OC)C1=O`, the pEC50 is less than 3.70 and the pIC50 is 6.00.

Turning to `O=C(O)CCC(NC(=O)c1ccccc1C(=O)O)C(=O)O` (stereo not drawn), the pEC50 is less than 3.70 and the pIC50 was less than 3.70.

On to `C/C(O)=C(\C=NC(=S)c1cccnc1)C(=O)Nc1ccccc1C`, for which the pEC50 is less than 3.70 and the pIC50 is less than 3.70.

Turning to `COc1ccc2nc3ccc(OC)cc3c(SCCCl)c2c1`, the outcome was inactive.

For `CC(C)N1CSC(=S)NCCNC(=S)SC1`, the pEC50 is less than 3.70 and the pIC50 was 4.02.

As to `O=C(Nc1ccccc1)N1CC2(CN1)CNN(C(=O)Nc1ccccc1)C2`, the pEC50 was less than 3.74 and the pIC50 is less than 3.74.

Regarding `C[Si](C)(C)c1ccc(CC2(Cc3ccc([Si](C)(C)C)cc3)CCNC2)cc1`, the pEC50 was less than 5.30 and the pIC50 was less than 5.30.

Regarding `Cn1c2ccccc2c2c3c(ccc21)C(=O)c1ccccc1C3=O`, the pEC50 was less than 4.77 and the pIC50 was less than 4.77.

Consider `C#CCN(Cc1ccc2nc(-c3ccccc3)c(Cl)nc2c1)c1ccc(F)cc1`, for which the pEC50 was less than 3.70 and the pIC50 was 4.56.

With `Cn1nc(-c2ccc(Cl)c(Cl)c2)[n+]([O-])c2c(=O)n(C)c(=O)nc1-2`, the pEC50 is less than 3.70 and the pIC50 was 5.86.

For `O=C1C(=Cc2ccc(F)cc2)C(=O)c2ccccc21`, the pEC50 is less than 4.97 and the pIC50 is less than 4.97.

Turning to `COc1ccc(C2CC(=O)CC(c3ccc(OC)cc3)C23C(=O)NC(=O)NC3=O)cc1` (stereo not drawn), the pEC50 was less than 4.00 and the pIC50 was 4.39.

Turning to `Nc1nc(Cl)cc(NCC2CC(O)(CO)C2)n1` (stereo not drawn), the pEC50 is less than 3.70 and the pIC50 is less than 3.70.

For the compound `CCOC(=O)C1=NN(c2ccccc2)C(=O)/C1=C\n1c(=S)sc2ccccc21`, the pEC50 was less than 4.00 and the pIC50 is 4.29.

`O=c1c2sc3ccccc3sc=2c(=O)c2c(Cl)c(Cl)c(Cl)c(Cl)c12`: the pEC50 was less than 3.90 and the pIC50 was 4.23.

Turning to `COc1ccc(N2C(=O)C(N3C(=O)C=CC3=O)C2C=O)cc1` (stereo not drawn), the pEC50 was less than 3.78 and the pIC50 was less than 3.78.

`Cc1ccc2oc(=O)c(C#N)c(/C=C\c3ccccc3O)c2c1`: the pEC50 is less than 4.00 and the pIC50 was 5.25.

For `CCOC(=O)/C(=C\c1ccc(C(=O)OC)cc1)[Se]c1ccccc1`, the pEC50 was less than 4.18 and the pIC50 is 4.21.

Take `CCOC(=O)c1ccc(CSc2ccc(N)cc2)c([N+](=O)[O-])c1`: the pEC50 was less than 4.39 and the pIC50 is less than 4.39.

For `Nc1nc(=S)ss1`, the pEC50 is less than 3.70 and the pIC50 was 3.81.

As to `O=C(c1nsc(Cl)c1Cl)N1CCCCC1`, the pEC50 was less than 3.70 and the pIC50 was less than 3.70.

Turning to `c1ccc(C(CNCCN2CCCCCC2)C2CCCCC2)cc1` (stereo not drawn), the pEC50 was less than 4.00 and the pIC50 was 4.94.

As to `CSc1nc2c(c(N(C)C)n1)C=Nn1c(nc3ccccc31)S2`, the pEC50 is 5.01 and the pIC50 was 4.01.

Take `COc1ccc(NC(=O)C(=O)C(C(=O)c2ccccc2)C2OC(=O)c3ccccc32)c([N+](=O)[O-])c1` (stereo not drawn): the pEC50 is less than 3.87 and the negative-log IC50 (pIC50) was less than 3.87.

`CCOC(=O)C(=O)Nc1cc(Cl)c(Cl)cc1Cl`: the pEC50 is less than 4.20 and the pIC50 was less than 4.20.

As for `CC1=C(C(=O)CC(=O)C(=O)Nc2ccccc2C(F)(F)F)Sc2ccccc2N1`, the result was inactive.

For the compound `COc1cc(-c2cc(=O)c3c(O)cc(C)cc3o2)cc(OC)c1OC`, the pEC50 is less than 3.70 and the pIC50 is less than 3.70.

Turning to `Cc1cn(C2CC(O[Si](C)(C)C(C)(C)C)C(/C=[N+](\C)[O-])O2)c(=O)[nH]c1=O` (stereo not drawn), the pEC50 was less than 3.70 and the pIC50 was 4.43.

With `Cc1ccc(C(=O)/C(C#N)=C/Nc2c(C)n(C)n(-c3ccccc3)c2=O)cc1`, the pEC50 was less than 3.70 and the pIC50 is less than 3.70.

As for `COC1/C=C/OC2(C)Oc3c(C)c(O)c4c(O)c(c(/C=N/N5CCOCC5)c(O)c4c3C2=O)NC(=O)C(C)=C/C=C/C(C)C(O)C(C)C(O)C(C)C(OC(C)=O)C1C` (stereo not drawn), the pEC50 is less than 3.70 and the pIC50 was 4.45.

On to `COc1ccc(C(=O)C(c2ccc(OC)cc2)C2(O)C(=O)Nc3c2ccc(Cl)c3C)cc1` (stereo not drawn), for which the pEC50 was less than 4.94 and the pIC50 was less than 4.94.

Regarding `C(C[P+](c1ccccc1)(c1ccccc1)c1ccccc1)=C(c1ccccc1)c1ccccc1`, the pEC50 was less than 3.70 and the pIC50 is 5.98.

Source of the values: PubChem BioAssay AID179 (DTP/NCI, 2004).
